Results on four molecules are retold here after BindingDB's records for doi:10.1021/jm030810w (Glaxosmithkline, 2003).

This assay deals with Cytomegalovirus protease/assemblin (Human cytomegalovirus). Nature of the assay: Potency against human cytomegalovirus protease in HCMV pNA assay.

Consider `CC(C)c1ccc(NC(=O)N2CCC[C@H]2C(=O)N2CC[C@H]3[C@H]2[C@H](C)C(=O)N3c2nc3ccc(F)cc3s2)cc1` [(S)-2-[(3aS,6S,6aR)-4-(6-Fluoro-benzothiazol-2-yl)-6-methyl-5-oxo-hexahydro-pyrrolo[3,2-b]pyrrole-1-carbonyl]-pyrrolidine-1-carboxylic acid (4-isopropyl-phenyl)-amide], for which the Ki (usually the dissociation constant of the complex between target and ligand, obtained from inhibition or displacement) is 17 nM.

`CC(C)c1ccc(NC(=O)N2CCC[C@H]2C(=O)N2CC[C@H]3[C@H]2[C@H](C)C(=O)N3c2nc3cc(S(=O)(=O)C(F)F)ccc3s2)cc1` [(S)-2-{(3aS,6S,6aR)-4-[5-(Difluoro-methanesulfonyl)-benzothiazol-2-yl]-6-methyl-5-oxo-hexahydro-pyrrolo[3,2-b]pyrrole-1-carbonyl}-pyrrolidine-1-carboxylic acid (4-isopropyl-phenyl)-amide] gave a Ki of 10 nM.

With `CC(C)c1ccc(NC(=O)N2CCC[C@H]2C(=O)N2CC[C@H]3[C@H]2[C@H](C)C(=O)N3c2nc3c(Cl)cccc3s2)cc1` [(S)-2-[(3aS,6S,6aR)-4-(4-Chloro-benzothiazol-2-yl)-6-methyl-5-oxo-hexahydro-pyrrolo[3,2-b]pyrrole-1-carbonyl]-pyrrolidine-1-carboxylic acid (4-isopropyl-phenyl)-amide], affinity was put at a Ki of 41 nM.

Consider `COc1ccc2sc(N3C(=O)[C@@H](C)[C@@H]4[C@@H]3CCN4C(=O)[C@@H]3CCCN3C(=O)Nc3ccc(C(C)C)cc3)nc2c1` [(S)-2-[(3aS,6S,6aR)-4-(5-Methoxy-benzothiazol-2-yl)-6-methyl-5-oxo-hexahydro-pyrrolo[3,2-b]pyrrole-1-carbonyl]-pyrrolidine-1-carboxylic acid (4-isopropyl-phenyl)-amide], for which the Ki stood at 22 nM.
